# Reference: ChEMBL document CHEMBL3045930, “Study on the quantitative structuretoxicity relationships of aconitine compounds basing on PCA-ANN method” (Med Chem Res, 2013)
# Test system: Mus musculus
# Assay: Toxicity in po dosed Mus musculus (mouse)
# Format: organism-based
# Set-up: unit not given here
# Conditions: in vivo
compound,measurement,value
CCN1C[C@]2(COC)[C@H](O)C[C@H](OC)[C@]34C1[C@@H]([C@H](OC)[C@H]23)[C@]1(OC(C)=O)[C@H]2[C@@H](OC(=O)c3ccccc3)[C@](O)(C[C@H]24)[C@@H](OC)[C@@H]1O (stereo in doubt; 1),logLD50,-0.92
CCN1C[C@@]2(COC)[C@H]3[C@@H](OC)[C@@H]4C1[C@]3([C@@H](OC)C[C@H]2OC(C)=O)[C@@H]1C[C@]2(O)[C@@H](OC)C[C@@]4(OC(C)=O)[C@H]1[C@H]2OC(=O)c1ccccc1,logLD50,3.16
Br.COC[C@@]12CC[C@H](OC)[C@]34C([C@@H]([C@H](OC)[C@H]13)[C@]1(OC(C)=O)[C@H]3[C@@H](OC(=O)c5ccccc5)[C@](O)(C[C@H]34)[C@@H](OC)[C@@H]1O)N(C)C2,logLD50,-0.27
CCN1C[C@]2(COC(=O)c3ccccc3N3C(=O)C[C@H](C)C3=O)CC[C@H](OC)[C@]34C1[C@@](O)([C@@H](OC)[C@H]23)[C@@]1(O)C[C@H](OC)[C@H]2C[C@@H]4[C@@H]1[C@H]2OC,logLD50,0.48
CCN1C[C@]2(COC)[C@H](O)C[C@H](OC)[C@]34C1[C@@H]([C@H](OC)[C@H]23)[C@@]1(O)C[C@H](OC)[C@@]2(O)C[C@@H]4[C@@H]1[C@H]2OC(=O)c1ccccc1,logLD50,2.15
CCN1C[C@]2(O)CC[C@H](OC)[C@]34C1[C@@H](C[C@H]23)[C@@]1(O)C[C@H](OC)[C@H]2C[C@@H]4[C@]1(O)[C@H]2OC,logLD50,2.15
Br.COC[C@@]12CC[C@H](OC)[C@]34C([C@@H]([C@H](OC)[C@H]13)[C@]1(O)[C@H]3[C@@H](OC(=O)c5ccccc5)[C@](O)(C[C@H]34)[C@@H](OC)[C@@H]1O)N(C)C2,logLD50,1.41
CCN1C[C@]2(COC(=O)c3ccccc3N3C(=O)C[C@H](C)C3=O)CC[C@H](OC)[C@@]34C1[C@@]1(OCO[C@@]15C[C@H](OC)[C@H]1C[C@@H]3[C@@H]5[C@H]1OC)[C@@H](OC)[C@H]24 [ELATINE],logLD50,0.7
Br.CCN1C[C@]2(COC)[C@H](O)C[C@H](OC)[C@]34C1[C@@H]([C@H](OC)[C@H]23)[C@]1(OC(C)=O)[C@H]2[C@@H](OC(=O)c3ccccc3)[C@](O)(C[C@H]24)[C@@H](OC)[C@@H]1O,logLD50,-0.87
Br.COC[C@]12CN(C)C3[C@H]4[C@H](OC)[C@H]1[C@@]3([C@@H](OC)C[C@H]2O)[C@@H]1C[C@@]2(O)[C@H](OC(=O)c3ccccc3)[C@@H]1[C@]4(O)[C@@H](O)[C@@H]2OC,logLD50,1.38
COC[C@]12CN(C)C3[C@H]4[C@H](OC)[C@H]1[C@@]3([C@@H](OC)C[C@H]2O)[C@@H]1C[C@@]2(O)[C@H](OC(=O)c3ccccc3)[C@@H]1[C@]4(OC(C)=O)[C@@H](OC)[C@@H]2O,logLD50,-1
CCN1C[C@]2(COC)CC[C@H](O)[C@]34C1[C@@](O)([C@@H](OC)[C@H]23)[C@@]1(O)C[C@H](OC)[C@H]2C[C@@H]4[C@@H]1[C@H]2O,logLD50,2.04
CCN1C[C@]2(COC)[C@H](O)C[C@H](OC)[C@]34C1[C@@H]([C@H](OC)[C@H]23)[C@]1(OC(C)=O)[C@H]2[C@@H](OC(=O)c3ccccc3)[C@](O)(C[C@H]24)[C@@H](OC)[C@@H]1O (stereo in doubt; 12),logLD50,-0.78
CCN1C[C@]2(COC)[C@H](O)C[C@H](OC)[C@]34C1[C@@H]([C@H](OC)[C@H]23)[C@@]1(OC(C)=O)C[C@H](OC)[C@@]2(O)C[C@@H]4[C@@H]1[C@H]2OC(=O)c1ccccc1,logLD50,-0.33
CCN1C[C@]2(OC(=O)c3ccccc3NC(C)=O)CC[C@H](OC)[C@]34C1[C@@H](C[C@H]23)[C@@]1(O)C[C@H](OC)[C@H]2C[C@@H]4[C@]1(O)[C@H]2OC,logLD50,0.84
CCN1C[C@]2(COC)CC[C@H](OC)[C@]34C1[C@@H](C[C@H]23)[C@@]1(O)C[C@H](OC)[C@H]2C[C@@H]4[C@@H]1[C@H]2O,logLD50,-0.94
CCN1C[C@@H]2CC[C@H](OC)[C@]34C1[C@@H](C[C@H]23)[C@@]1(O)C[C@@H](OC)[C@@]2(O)C[C@@H]4[C@@H]1[C@H]2OC(=O)c1ccccc1,logLD50,1.45
CCN1C[C@]2(C)CC[C@H](OC)[C@@]34C1[C@@]1(OCO[C@@]15C[C@H](OC)[C@H]1C[C@]3(O)[C@@H]5[C@H]1OC)[C@@H](OC(C)=O)[C@H]24,logLD50,2.12
CCN1C[C@]2(OC(=O)c3ccccc3NC(C)=O)CC[C@H](OC)[C@]34C1[C@@H](C[C@H]23)[C@@]1(OC(C)=O)C[C@H](OC)[C@H]2C[C@@H]4[C@]1(OC(C)=O)[C@H]2OC,logLD50,1.16
CCN1C[C@]2(COC)[C@H](O)C[C@H](OC)[C@]34C1[C@@H]([C@H](OC)[C@H]23)[C@]1(O)[C@H]2[C@@H](OC(=O)c3ccccc3)[C@](O)(C[C@H]24)[C@@H](OC)[C@@H]1O,logLD50,1
Br.CCN1C[C@]2(COC)[C@H](O)C[C@H](OC)[C@]34C1[C@@H]([C@H](OC)[C@H]23)[C@]1(O)[C@H]2[C@@H](OC(=O)c3ccccc3)[C@](O)(C[C@H]24)[C@@H](OC)[C@@H]1O,logLD50,1.41
COC[C@@]12CC[C@H](OC)[C@]34C([C@@H]([C@H](OC)[C@H]13)[C@]1(OC(C)=O)[C@H]3[C@@H](OC(=O)c5ccccc5)[C@](O)(C[C@H]34)[C@@H](OC)[C@@H]1O)N(C)C2,logLD50,-0.33
CCN1C[C@]2(COC)CC[C@H](O)[C@]34C1[C@@](O)([C@@H](OC)[C@H]23)[C@@]1(O)C[C@H](OC)[C@H]2C[C@@H]4[C@@H]1[C@H]2OC.Cl,logLD50,2.07
CCN1C[C@]2(COC)[C@H](O)C[C@H](OC)[C@]34C1[C@@H]([C@H](OC)[C@H]23)[C@@]1(OC(C)=O)C[C@H](OC)[C@@]2(O)C[C@@H]4[C@@H]1[C@H]2OC(=O)c1ccc(OC)c(OC)c1,logLD50,2.56
COC[C@]12CN(C)C3[C@H]4[C@H](OC)[C@H]1[C@@]3([C@@H](OC)C[C@H]2O)[C@@H]1C[C@@]2(O)[C@H](OC(=O)c3ccccc3)[C@@H]1[C@]4(O)[C@@H](O)[C@@H]2OC,logLD50,1.32
Br.CCN1C[C@]2(OC(=O)c3ccccc3NC(C)=O)CC[C@H](OC)[C@]34C1[C@@H](C[C@H]23)[C@@]1(O)C[C@H](OC)[C@H]2C[C@@H]4[C@]1(O)[C@H]2OC,logLD50,0.92
CCN1C[C@@]2(COC)[C@H]3[C@@H](OC)[C@@H]4C1[C@]3([C@@H](OC)C[C@H]2OC(C)=O)[C@@H]1C[C@]2(OC(C)=O)[C@@H](OC)C[C@@]4(OC(C)=O)[C@H]1[C@H]2OC(C)=O,logLD50,2.18
CCN1C[C@]2(COC)CC[C@H](O)[C@]34C1[C@@](O)([C@@H](OC)[C@H]23)[C@@]1(O)C[C@H](OC)[C@H]2C[C@@H]4[C@@H]1[C@H]2OC [DELSOLINE],logLD50,2.24
Br.COC[C@]12CN(C)C3[C@H]4[C@H](OC)[C@H]1[C@@]3([C@@H](OC)C[C@H]2O)[C@@H]1C[C@@]2(O)[C@H](OC(=O)c3ccccc3)[C@@H]1[C@]4(OC(C)=O)[C@@H](O)[C@@H]2OC,logLD50,-0.95
COC[C@@]12CC[C@H](OC)[C@]34C([C@@H]([C@H](OC)[C@H]13)[C@]1(O)[C@H]3[C@@H](OC(=O)c5ccccc5)[C@](O)(C[C@H]34)[C@@H](OC)[C@@H]1O)N(C)C2,logLD50,1.36
CCN1C[C@]2(C)CC[C@H](O)[C@]34C1[C@@H](C[C@H]23)[C@@]1(O)C[C@H](OC)[C@H]2C[C@@H]4[C@@H]1[C@H]2O [KARAKOLINE],logLD50,1.71
CCN1C[C@]2(COC)[C@H](O)C[C@H](OC)[C@]34C1[C@@H]([C@H](OC)[C@H]23)[C@]1(OC(C)=O)[C@H]2[C@@H](OC(=O)c3ccccc3)[C@](O)(C[C@]24O)[C@@H](OC)[C@@H]1O,logLD50,-0.66
CCN1C[C@@]2(COC)[C@H]3[C@@H](OC)[C@@H]4C1[C@]3([C@@H](OC)C[C@H]2OC(C)=O)[C@@H]1C[C@@]2(OC(C)=O)[C@H](OC(=O)c3ccccc3)[C@@H]1[C@]4(OC(C)=O)[C@@H](OC(C)=O)[C@@H]2OC,logLD50,2.1
CCN1C[C@@]2(COC)[C@H]3[C@@H](OC)[C@@H]4C1[C@]3([C@@H](OC)C[C@H]2OC(C)=O)[C@@H]1C[C@]2(OC(C)=O)[C@@H](OC)C[C@@]4(OC(C)=O)[C@H]1[C@H]2OC(=O)c1ccccc1,logLD50,1.34
CCN1C[C@@]2(COC)[C@H]3[C@@H](OC)[C@@H]4C1[C@]3([C@@H](OC)C[C@H]2OC(C)=O)[C@@H]1C[C@@]2(OC(C)=O)[C@H](OC(C)=O)[C@@H]1[C@]4(OC(C)=O)[C@@H](OC(C)=O)[C@@H]2OC,logLD50,2.83
CCN1C[C@@]2(COC)[C@H]3[C@@H](OC)[C@@H]4C1[C@]3([C@@H](OC)C[C@H]2OC(C)=O)[C@@H]1C[C@@]2(O)[C@H](OC(=O)c3ccccc3)[C@@H]1[C@]4(OC(C)=O)[C@@H](O)[C@@H]2OC,logLD50,-0.4
